EC50 data for 1 compound are collected here from patent US11234979B2, “Heteroaryl compounds as muscarinic M1 receptor positive allosteric modulators” (SUVEN LIFE SCIENCES LIMITED, priority 2017, dated 2022).

This assay deals with T1, recombinant human Muscarinic M1 receptor (Homo sapiens, UniProt P11229).
T1 construct: expressed in transfected cells
T1 sequence (P11229 1-460): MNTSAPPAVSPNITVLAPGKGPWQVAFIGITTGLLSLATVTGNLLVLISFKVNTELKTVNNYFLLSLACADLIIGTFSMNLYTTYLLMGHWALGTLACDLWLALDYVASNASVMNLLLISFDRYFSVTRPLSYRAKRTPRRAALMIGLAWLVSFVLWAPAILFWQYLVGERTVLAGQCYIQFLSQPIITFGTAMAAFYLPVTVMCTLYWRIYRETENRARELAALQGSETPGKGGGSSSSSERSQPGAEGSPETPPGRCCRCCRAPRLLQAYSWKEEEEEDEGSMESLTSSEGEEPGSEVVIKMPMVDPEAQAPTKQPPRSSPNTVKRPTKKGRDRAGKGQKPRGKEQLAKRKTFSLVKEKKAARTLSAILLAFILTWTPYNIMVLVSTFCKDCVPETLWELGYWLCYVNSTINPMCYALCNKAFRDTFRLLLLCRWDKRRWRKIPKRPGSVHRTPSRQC
Put plainly: Allosteric potency EC50 for Muscarinic M1 receptor, CHO pCRE-Luc reporter assay with EC20 of acetylcholine. Format: cell-based. Conditions: CHO cells, in presence of EC20 of acetylcholine, 4 hours. The method, boiled down: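 Stable CHO line expressing human M1 receptor with CRE-driven luciferase, serum-starved overnight, then exposed to increasing compound concentrations plus an EC20 of acetylcholine in OptiMEM for 4 hours at 37° C. Luciferase read after lysis, normalized to maximal acetylcholine response; EC50 is concentration giving 50% stimulation.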
(In general: In a reporter assay the amount or activity of a reporter protein is the signal.)

On to `Cn1cc(-c2ccc(Cc3cc(C(=O)N[C@H]4CCCC[C@@H]4O)n4ncccc34)cc2)cn1` [Example 32, N-(cis-1S,2S-2-Hydroxycyclohexyl)-5-[4-(1-methyl-1H-pyrazol-4-yl)-benzyl]-pyrrolo [1,2-b]pyridazine-7-carboxamide], for which the EC50 (as a rule, the concentration at which the effect is half-maximal) came out at 66 nM.
